The source made the active and inactive calls. Cut-off read from the data, not from the text of the source, for most assays here: actives have a measured EC50 and inactives only a lower limit.
Key:
[1] = molecular target: T1, Hepatocyte nuclear factor 4-alpha (Homo sapiens, UniProt P41235); assay type: functional, cell-based;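 note: biochemical luminescence-based dose-response counterscreen measuring inhibition of HNF4 dimerization, run alongside a screen for blockers of ABHD5–perilipin-5 interaction; split luciferase complementation of HNF4 fusion proteins in cell lysate measuring dimerization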
T1 sequence (P41235 whole entry): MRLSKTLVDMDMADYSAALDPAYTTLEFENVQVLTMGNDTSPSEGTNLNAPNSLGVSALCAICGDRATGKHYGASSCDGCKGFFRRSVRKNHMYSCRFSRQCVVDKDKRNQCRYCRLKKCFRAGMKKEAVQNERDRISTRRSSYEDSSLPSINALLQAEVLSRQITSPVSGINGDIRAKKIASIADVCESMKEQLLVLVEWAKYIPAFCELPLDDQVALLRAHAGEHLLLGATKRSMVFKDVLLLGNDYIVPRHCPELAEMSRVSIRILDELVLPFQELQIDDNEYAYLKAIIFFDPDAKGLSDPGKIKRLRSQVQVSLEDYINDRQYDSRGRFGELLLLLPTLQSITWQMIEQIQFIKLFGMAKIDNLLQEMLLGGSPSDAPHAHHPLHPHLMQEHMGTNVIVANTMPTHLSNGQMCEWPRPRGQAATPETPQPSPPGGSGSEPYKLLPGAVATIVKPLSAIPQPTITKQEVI

[2] = NIH-3T3 fibroblast cytotoxicity, dose response, cytotoxicity control, cell-based, fluorescence, Alamar Blue, secondary assay (AID 2327); assay type: functional;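 note: NIH-3T3 mouse fibroblasts cultured with fluconazole at 8 µg/mL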
[3] = fluconazole-exposed Candida albicans growth modulators – fluorescence, retest, confirmation (AID 2467); assay type: functional, cell-based
[4] = molecular target: T2, Serine/threonine-protein phosphatase (Candida dubliniensis (strain CD36 / CBS 7987 / NCPF 3949 / NRRLY-17841) (Yeast), UniProt B9W6M3); test: blockers of CaCl2-induced CDRE-lacZ signaling – S. cerevisiae, luminescence, secondary, dose response (AID 2388); assay type: functional, cell-based;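 note: yeast reporter cells carrying a calcineurin-responsive lacZ construct stimulated with calcium chloride; luminescent beta-galactosidase reporter signal in whole cells rather than isolated phosphatase activity; potency for inhibition where a drop in reporter signal means calcineurin blockade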
T2 sequence (B9W6M3 whole entry): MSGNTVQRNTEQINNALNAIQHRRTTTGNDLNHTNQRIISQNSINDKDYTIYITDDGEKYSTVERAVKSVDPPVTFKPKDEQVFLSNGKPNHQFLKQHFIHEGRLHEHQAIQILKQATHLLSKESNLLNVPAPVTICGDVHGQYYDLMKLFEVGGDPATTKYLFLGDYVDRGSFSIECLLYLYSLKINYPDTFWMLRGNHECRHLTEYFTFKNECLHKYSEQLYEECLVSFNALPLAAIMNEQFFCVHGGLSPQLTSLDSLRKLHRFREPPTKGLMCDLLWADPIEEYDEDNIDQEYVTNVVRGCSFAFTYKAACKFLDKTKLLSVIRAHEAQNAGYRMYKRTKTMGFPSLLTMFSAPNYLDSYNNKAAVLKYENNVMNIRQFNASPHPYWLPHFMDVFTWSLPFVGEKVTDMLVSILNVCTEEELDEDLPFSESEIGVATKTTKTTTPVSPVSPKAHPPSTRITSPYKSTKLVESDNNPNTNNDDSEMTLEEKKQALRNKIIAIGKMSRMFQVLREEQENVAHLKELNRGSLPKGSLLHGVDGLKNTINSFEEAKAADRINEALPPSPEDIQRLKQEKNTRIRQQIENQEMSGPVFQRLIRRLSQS

[5] = molecular target: T3, Short transient receptor potential channel 4 (Mus musculus, UniProt Q9QUQ5); test: block of DAMGO-driven TRPC4 calcium entry – cell-based, HEK293 TRPC4/mu-opioid, Fluo-4 calcium, dose response (AID 434942); assay type: functional;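 note: potency of inhibitors blocking the TRPC4 calcium response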
T3 sequence (Q9QUQ5 whole entry): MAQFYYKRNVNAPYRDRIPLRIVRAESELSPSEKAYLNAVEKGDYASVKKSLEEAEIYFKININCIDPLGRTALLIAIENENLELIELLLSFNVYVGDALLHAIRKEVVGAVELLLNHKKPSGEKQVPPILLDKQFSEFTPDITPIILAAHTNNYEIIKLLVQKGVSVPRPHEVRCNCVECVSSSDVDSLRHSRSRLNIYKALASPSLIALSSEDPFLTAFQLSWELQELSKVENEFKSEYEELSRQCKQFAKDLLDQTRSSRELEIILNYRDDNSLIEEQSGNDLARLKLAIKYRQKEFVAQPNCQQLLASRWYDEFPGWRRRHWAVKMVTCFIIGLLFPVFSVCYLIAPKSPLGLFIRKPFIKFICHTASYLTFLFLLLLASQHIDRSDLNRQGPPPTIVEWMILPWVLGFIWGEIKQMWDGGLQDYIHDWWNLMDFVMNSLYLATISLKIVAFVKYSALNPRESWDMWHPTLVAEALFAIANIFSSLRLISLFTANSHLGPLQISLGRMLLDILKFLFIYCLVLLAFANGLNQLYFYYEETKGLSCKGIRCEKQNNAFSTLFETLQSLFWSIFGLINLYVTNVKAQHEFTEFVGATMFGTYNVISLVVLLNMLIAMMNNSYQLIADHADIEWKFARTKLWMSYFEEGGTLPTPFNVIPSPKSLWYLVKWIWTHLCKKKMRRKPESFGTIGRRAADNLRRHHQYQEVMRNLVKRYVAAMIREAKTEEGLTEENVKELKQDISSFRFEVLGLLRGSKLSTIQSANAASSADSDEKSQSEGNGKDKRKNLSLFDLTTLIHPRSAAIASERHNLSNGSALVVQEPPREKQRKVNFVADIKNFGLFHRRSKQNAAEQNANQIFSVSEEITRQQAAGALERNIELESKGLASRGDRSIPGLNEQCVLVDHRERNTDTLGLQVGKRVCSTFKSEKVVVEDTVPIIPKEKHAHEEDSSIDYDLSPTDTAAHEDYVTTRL

[6] = molecular target: ATP-dependent molecular chaperone HSP82 (Candida albicans (strain WO-1) (Yeast), UniProt C4YTQ8); test: steroid-induced GRE reporter decrease in yeast – S. cerevisiae, luminescence, Hsp90 inhibitor project, dose response (AID 2400); assay type: functional, cell-based;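 note: beta-galactosidase luminescence from glucocorticoid response element reporter as proxy for Hsp90 function; inhibitor potency where signal loss means Hsp90 inhibition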
[7] = luciferase reporter signal suppression in cells – H4 neuroglioma cells, luminescence, dose response (AID 1990); assay type: functional, cell-based
[8] = test system: Streptococcus sp. 'group A'; test: Streptococcus pyogenes SK(-)GAS viability under kanamycin – luminescence, BacTiterGlo, confirmation, counter-screen for streptokinase expression inhibitor project, dose response (AID 1900); assay type: functional, organism-based
cells [9] = assay type: functional, cell-based
[10] = Luminescence Cell-Based Dose Response HTS to Identify Inhibitors of 5'UTR Stem-Loop Driven Prion Protein mRNA Translation in H4 Neuroglioblastoma Cells. [Related pubchem assays: 1827 (Project Summary), 1813 (Primary HTS)]; assay type: functional
[11] = alpha-synuclein stem-loop luciferase translation blockers – H4 neuroglioma cells, luminescence, confirmation (AID 1988); assay type: functional, cell-based
Streptokinase A = molecular target: T4, Streptokinase A (Streptococcus pyogenes serotype M1, UniProt P10520); test: viability-normalized secreted streptokinase activity reduction – plasminogen activation absorbance, OD405, dose response (AID 1914); assay type: functional, Streptococcus pyogenes M1 GAS;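 note: secreted streptokinase activity via plasminogen activation per viability signal from cell pellet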
T4 sequence (P10520 whole entry): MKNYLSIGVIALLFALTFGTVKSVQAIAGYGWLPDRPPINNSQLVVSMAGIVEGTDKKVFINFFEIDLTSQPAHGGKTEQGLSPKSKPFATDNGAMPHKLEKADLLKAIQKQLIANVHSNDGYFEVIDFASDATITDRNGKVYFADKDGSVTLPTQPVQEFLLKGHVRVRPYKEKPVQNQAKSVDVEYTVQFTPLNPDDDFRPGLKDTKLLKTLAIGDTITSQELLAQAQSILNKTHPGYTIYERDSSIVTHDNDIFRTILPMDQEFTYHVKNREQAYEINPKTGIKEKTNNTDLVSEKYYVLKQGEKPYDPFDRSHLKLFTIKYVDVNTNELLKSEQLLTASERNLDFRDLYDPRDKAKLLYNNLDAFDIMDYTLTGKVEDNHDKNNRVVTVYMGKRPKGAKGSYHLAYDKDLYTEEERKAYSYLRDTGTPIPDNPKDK

[12] = Trypanosoma cruzi growth suppression in host cells – NIH3T3 host cells, beta-gal luminescence, confirmation (AID 2044); assay type: functional, cell-based;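 note: intracellular parasites grown in NIH/3T3 mouse fibroblasts as host cells; luminescent beta-galactosidase reporter signal from transgenic T. cruzi replicating inside host cells; inhibitors lower the luminescence signal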
cells [13] = assay type: functional, cell-based; remark: listed apart in the source
[14] = NIH3T3 cell viability loss – ATP luminescence, mouse fibroblasts, counter-screen, dose response (AID 2010); assay type: functional, cell-based;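 note: cells exposed to compound for about 90 hours before reading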
Streptococcus = test: GAS UMAA2166 growth inhibition – luminescence, BacTiterGlo, counter-screen for streptokinase expression inhibitor project, dose response (AID 1915); assay type: functional, organism-based;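 note: potency for reduction of bacterial viability or growth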
[15] = molecular target: Heat shock protein HSP 90-alpha (Homo sapiens, UniProt P07900); assay type: functional, organism-based
INS1 = test: INS-1E survival protection against cytokine death – cell-based, luminescence, retest, dose response (AID 449756); assay type: functional; conditions: Rattus norvegicus;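 note: cell death triggered by IL-1 beta plus TNF-alpha plus IFN-gamma mixture; protective hits raise ATP signal compared with cytokine alone wells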
[16] = reduction of Shn3 3'UTR-driven luciferase in osteoblasts – cell-based, Clone20 osteoblasts, firefly luciferase, cherry-picked, dose response (AID 624132); assay type: functional;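 note: firefly luciferase luminescence from reporter carrying the Shn3 3'UTR in osteoblasts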
[17] = loss of viability in HepG2 cells – cell-based, CellTiter-Glo, cherry-picked, cytotoxicity control for Shn3 inhibitor project, dose response (AID 624134); assay type: functional
[18] = non-specific 3'UTR reporter inhibition in Clone20-Shn3RL – cell-based, Renilla luciferase, cherry-picked, counter-screen for Shn3 inhibitor project, dose response (AID 624133); assay type: functional

ATP-dependent molecular chaperone HSP82, sequence (C4YTQ8 whole entry): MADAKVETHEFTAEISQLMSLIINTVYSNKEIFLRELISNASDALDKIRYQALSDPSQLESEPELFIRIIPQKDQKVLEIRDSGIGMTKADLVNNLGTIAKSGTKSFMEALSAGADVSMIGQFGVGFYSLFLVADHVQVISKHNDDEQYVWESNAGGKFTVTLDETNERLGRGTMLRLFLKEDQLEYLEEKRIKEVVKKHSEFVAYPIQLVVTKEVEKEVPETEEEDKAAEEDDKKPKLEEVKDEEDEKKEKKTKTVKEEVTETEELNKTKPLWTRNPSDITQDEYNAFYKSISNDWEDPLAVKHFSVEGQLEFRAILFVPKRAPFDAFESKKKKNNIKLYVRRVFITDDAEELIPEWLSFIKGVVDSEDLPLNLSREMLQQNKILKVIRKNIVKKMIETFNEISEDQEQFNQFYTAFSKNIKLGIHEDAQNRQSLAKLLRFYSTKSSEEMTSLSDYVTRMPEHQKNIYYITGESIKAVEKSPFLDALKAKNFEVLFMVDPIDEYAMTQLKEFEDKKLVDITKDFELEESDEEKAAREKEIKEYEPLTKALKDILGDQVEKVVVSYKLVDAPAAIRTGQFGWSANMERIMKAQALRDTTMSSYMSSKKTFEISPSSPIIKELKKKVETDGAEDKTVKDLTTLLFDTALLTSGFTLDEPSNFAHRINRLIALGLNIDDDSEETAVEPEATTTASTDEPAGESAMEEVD

With `O=C(NC1CCCCC1)C(c1ccc(C(F)(F)F)cc1)n1c(=O)c(-c2ccco2)nc2ccccc21` (configuration not stated) as the compound, how does the IC50 [1] read?
The IC50 was 2.41 µM (active).

For `CCCCCNC(=O)C(c1ccc(C#N)cc1)n1c(=O)c(-c2ccco2)nc2ccccc21` (configuration not stated), which IC50 [1] is on record?
Its IC50 is 3.24 µM (active).

For `COc1ccc(NC(=O)C(c2ccnc3ccccc23)n2c(=O)c(-c3ccco3)nc3ccccc32)cc1` (configuration not stated), which IC50 [1] is on record?
The IC50 was 10.9 µM (inactive).

Which EC50 [2] does the source give for `CCCCCCCNC(=O)COc1ccc2c(c1)C(=O)CC(C)(C)O2` here?
The EC50 was > 160 µM (inactive).

And the EC50 [3]?
The EC50 was 2.28 µM (active).

And the EC50 [4]?
The EC50 was > 180 µM (inactive).

What about the EC50 [5] of the same compound?
Its EC50 is 0.944 µM (active).

What about the EC50 [6] of the same compound?
The EC50 was > 160 µM (inactive).

Which results are given for `Oc1c(CN2CCN(c3ccc(F)cc3)CC2)cc(Cl)c2cccnc12`?
EC50 [2]: 26.1 µM (active); EC50 [7]: 0.2 µM (active); EC50 [8]: 1.56 µM (active); EC50 (cells [9]): 69.4 µM (active); EC50 [10]: 0.157 µM (active); EC50 [11]: 0.192 µM (active); EC50 (Streptokinase A): > 150 µM (not active); EC50 [3]: 0.693 µM (active); EC50 [12]: 0.465 µM (active); EC50 (cells [13]): > 350 µM (not active); EC50 [4]: > 180 µM (inactive); EC50 [14]: 8.2 µM (active); EC50 (Streptococcus): 10.8 µM (active); AC50 [15]: 7.92 µM (active); AC50 (INS1): 1.27 µM (active); EC50 [6]: > 160 µM (inactive); AC50 [16]: 1.32 µM (active); AC50 [17]: > 70 µM (inactive); AC50 [18]: 0.534 µM (active)

Source: ChEMBL document CHEMBL1201862, “PubChem BioAssay data set” (2004)
